According to patent US20230414654A1, “METHODS OF TREATING COPPER METABOLISM-ASSOCIATED DISEASES OR DISORDERS” (Alexion Pharmaceuticals, Inc., priority 2020, published 2023):
Read-outs that look alike come from different tables or passages of the source. Marks after values point to notes of the source that are not given here.

Assays:
[1] = Mobilization of copper from tissue (Studies 106, 201, 203); conditions: Study 106, Study 201 (BC-TTM); Study 203 (SoC)
[2] = in vivo; cited from earlier work
[3] = cited from earlier work
participants with WD = conditions: for participants considered successfully treated (NCC/NCCcorrected primary endpoint): by Week 24; for participants considered successful (primary endpoint): last assessment of Extension Period
Method: This study was conducted in US and European sites. […] A total of 28 participants were enrolled and treated (10 in Cohort 1 [treatment experienced] and 18 in Cohort 2 [treatment naïve or minimally treated]). One participant was enrolled in Cohort 2 but not treated.
NCC levels within or above the normal reference range at enrollment were required. […] Dosing was individualized, guided by NCC levels (adjusted for molybdenum plasma concentration) and safety data. The primary efficacy endpoint was related to the proportion of successful participants, i.e., the proportion of participants who achieved plasma “free” copper control or improvement from baseline.
Due to small sample size and data variability, the median values for the weighted averages of the doses will be cited throughout.
The primary endpoint in study 201 was the change in NCC/NCCcorrected from baseline to Week 24.
In Study 201, 12-hour dense PK/PD samples for plasma total molybdenum and copper were collected on Day 1, Week 12, and Week 24. Plasma samples for assessing “free” copper were also collected at 0, 4, and 8 hours during those visits and assayed for LBC concentrations. For the purpose of comparison across Studies 106 and 201, FIG. 3 has super-imposed LBC/total copper ratios-time profiles within the 12-hour time window after dosing from both studies.

Method for healthy participants: Twenty-four participants were enrolled (12 Japanese and 12 non-Japanese). […] Participants were followed 10 days after dosing within each Dosing Period, and a minimum of 14 days (+2 days) separated the dosing periods. PK and PD concentrations were measured over the next several hours for the first day and once daily for the next 9 days. Therefore, Study 106 permits examination of PK and PD profile changes within hours after drug administration.

Q: For `CC(C)(S)[C@@H](N)C(=O)O` [Penicillamine, (2S)-2-amino-3-methyl-3-sulfanylbutanoic acid], which “Mobilization of Copper from Tissue” value [1] is on record?
A: No (Study 203)

Q: Which “Mobilization of Copper from Tissue” value [1] does the source give for `[Zn]` [Zinc, zinc] here?
A: No (Study 203)

Q: What about the “Route of Copper Elimination” value [2] of the same compound?
A: Non-absorbed

Q: What does the source list for Bis-choline tetrathiomolybdate [BC-TTM]?
A: Mobilization of Copper from Tissue [1]: Yes (Study 106;; Cu-Binding Selectivity [3]: Cu^+ and Cu^2+*; time of maximum plasma total copper concentration post dose (healthy participants; 15 mg or 60 mg single dose): 8 to 12 h; maximum median increase of plasma total copper from baseline (healthy participants; 8-12 hours post dose): 26-34%; median plasma LBC as % of pre-dose baseline concentration (healthy participants; 12-24 hours post dose, combined ethnicity and dose data): 80-90%; median plasma LBC nadir as % of pre-dose baseline concentration (healthy participants; 3 hours post dose, combined ethnicity and dose data): 50-70%; percentage of plasma LBC relative to plasma total copper (AUEC) (healthy participants; after administration, all participants, both ethnicities and doses pooled): 7%; time at which median plasma LBC returned to baseline (healthy participants; after dose): 10 days; maximum individual plasma LBC concentration (healthy participants; after single 15 mg dose): 2.79 µM; maximum individual plasma total copper concentration (healthy participants; after single 15 mg dose): 23.0 µM; maximum individual plasma LBC concentration (healthy participants; after single 60 mg dose): 2.93 µM; maximum individual plasma total copper concentration (healthy participants; after single 60 mg dose): 21.7 µM; dose proportionality of plasma total molybdenum Cmax and AUC (healthy participants; human, in vivo): less than dose-proportionally; time to maximum plasma molybdenum (Tmax) (healthy participants; human, in vivo): 5 h; delay of maximum plasma total copper after maximum plasma total molybdenum (healthy participants; in vivo): 3 to 7 h; plasma molybdenum anticipated to be in the form of TPCs (healthy participants; in vivo): approximately 96%; time at which total copper concentrations had returned to predose baseline (healthy participants; post dose): 240 h; drop of LTC Ratio (LBC/total copper) from baseline (participants with WD; Day 1, 4 hours post dose, weighted average dose 30 mg): ~30%; nadir drop of LTC Ratio compared to Day 1 pre-dose baseline (participants with WD; Week 24, 4 hours post-dose, weighted average dose 35.8 mg): ~50%; reduction of mean serum non-ceruloplasmin-bound Cu (NCC) (participants with WD; Week 24 compared with baseline, 28 patients with WD, monotherapy): 72%; reduction of pre-dose LTC Ratio compared to Day 1 pre-dose baseline (participants with WD; Week 24 pre-dose, weighted average dose 35.8 mg): ~30%; participants considered successfully treated (NCC/NCCcorrected primary endpoint) (participants with WD; Cohort 1 (treatment experienced)): 90.0%; participants considered successfully treated (NCC/NCCcorrected primary endpoint) (participants with WD; Cohort 2 (treatment naïve or minimally treated)): 83.3%; paradoxical neurological worsening upon treatment initiation (participants with WD; in vivo): No paradoxical neurological worsening was observed; patients with reversible liver function test elevations (participants with WD; in vivo): 39%; tolerability (participants with WD; in vivo): generally well-tolerated; participants considered successful (primary endpoint) (participants with WD; Cohort 1): 90.0%; participants considered successful (primary endpoint) (participants with WD; Cohort 2): 83.3%; participants considered successful (primary endpoint) (participants with WD; all participants): 85.7%; Route of Copper Elimination [2]: Biliary/fecal

Q: Which results are given for `NCCNCCNCCN` [Trientine, N-[2-(2-aminoethylamino)ethyl]ethane-1,2-diamine]?
A: Mobilization of Copper from Tissue [1]: No; Cu-Binding Selectivity [3]: Cu^2+, and other
